{
  "source": "patent US20250312469A1",
  "about": "(CANGET BIOTEKPHARMA, priority 2024, published 2025)",
  "key": {"[1]": {"test_system": "SK-ES-1 OS tumors", "assay": "SK-ES-1 osteosarcoma xenograft", "format": "in vivo, SCID mice", "settings": "weekly×4"}, "[2]": {"assay": "in vitro", "settings": "both, human, whole blood (sodium heparin), pH 7.4"}},
  "data": [
    {"smiles": "COc1cccc2c1C(=O)c1c(O)c3c(c(O)c1C2=O)C[C@@](O)(C(=O)CO)C[C@@H]3O[C@H]1C[C@H](N)[C@H](O)[C@H](C)O1", "note": "[DOX, doxorubicin, reference compound]", "values": [
      {"measurement": "antitumor efficacy", "setting": "[1]", "result": "not seen"}
    ]},
    {"smiles": "NS(=O)(=O)c1cc(C2(O)NC(=O)c3ccccc32)ccc1Cl", "note": "(centres unmarked) [chlorthalidone]", "values": [
      {"measurement": "blood plasma ratio at 60 min, 1 μM", "setting": "[2]", "result": 8.73}
    ]}
  ]
}
